Measured values: PubChem BioAssay (NCI)
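How tested: cells in 96-well plates exposed to compound for 48 hours at five concentrations. TGI denotes the concentration required for complete inhibition of growth.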

Tests used:
Experiment in all cases: NCI anticancer screen, dose series, 48 h
RXF-631 renal = system: RXF-631 renal
SK-MEL-5 melanoma = system: SK-MEL-5 melanoma
HOP-92 NSCLC = system: HOP-92 NSCLC
HCT-116 colon = system: HCT-116 colon
UO-31 renal = system: UO-31 renal
CCRF-CEM leukemia = system: CCRF-CEM leukemia
SK-MEL-28 melanoma = system: SK-MEL-28 melanoma
NCI-H460 lung = system: NCI-H460 lung
HCC-2998 colon = system: HCC-2998 colon
OVCAR-8 ovarian = system: OVCAR-8 ovarian
SW-620 colon = system: SW-620 colon
SR leukemia = system: SR leukemia
KM20L2 colon = system: KM20L2 colon
U251 CNS = system: U251 CNS
SF-295 CNS = system: SF-295 CNS
IGROV1 ovarian = system: IGROV1 ovarian
K-562 leukemia = system: K-562 leukemia
DMS 114 small cell lung = system: DMS 114 small cell lung
M14 melanoma = system: M14 melanoma
SNB-75 CNS = system: SNB-75 CNS
ACHN renal = system: ACHN renal
UACC-62 melanoma = system: UACC-62 melanoma
HOP-18 NSCLC = system: HOP-18 NSCLC
DLD-1 colon = system: DLD-1 colon
KM12 colon = system: KM12 colon
NCI-H23 lung = system: NCI-H23 lung
MALME-3M melanoma = system: MALME-3M melanoma
DMS 273 small cell lung = system: DMS 273 small cell lung
NCI-H226 lung = system: NCI-H226 lung
RPMI-8226 leukemia = system: RPMI-8226 leukemia
A498 renal = system: A498 renal
SK-OV-3 ovarian = system: SK-OV-3 ovarian
A549 NSCLC = system: A549 NSCLC
HCT-15 colon = system: HCT-15 colon
SF-268 CNS = system: SF-268 CNS
M19-MEL melanoma = system: M19-MEL melanoma
OVCAR-4 ovarian = system: OVCAR-4 ovarian
SNB-19 CNS = system: SNB-19 CNS
LOX IMVI melanoma = system: LOX IMVI melanoma
786-0 renal = system: 786-0 renal
COLO 205 colon = system: COLO 205 colon
SNB-78 CNS = system: SNB-78 CNS
TK-10 renal = system: TK-10 renal
SN12C renal = system: SN12C renal
HT29 colon = system: HT29 colon
LXFL 529 NSCLC = system: LXFL 529 NSCLC
SK-MEL-2 melanoma = system: SK-MEL-2 melanoma
CAKI-1 renal = system: CAKI-1 renal
EKVX NSCLC = system: EKVX NSCLC
NCI-H522 lung = system: NCI-H522 lung
MOLT-4 leukemia = system: MOLT-4 leukemia
SF-539 CNS = system: SF-539 CNS
HOP-62 NSCLC = system: HOP-62 NSCLC
XF 498 CNS = system: XF 498 CNS
OVCAR-3 ovarian = system: OVCAR-3 ovarian
OVCAR-5 ovarian = system: OVCAR-5 ovarian
UACC-257 melanoma = system: UACC-257 melanoma
HL-60(TB) leukemia = system: HL-60(TB) leukemia

SMILES: Cc1ccc(C2(O)CC(c3ccc([N+](=O)[O-])o3)=NN2C(=O)COc2ccccc2Cl)cc1 (stereo not drawn)
- TGI (RXF-631 renal): > 55.1 µM
- TGI (SK-MEL-5 melanoma): 8.54 µM
- TGI (HOP-92 NSCLC): > 95.3 µM
- TGI (HCT-116 colon): > 87.4 µM
- TGI (UO-31 renal): > 100 µM
- TGI (CCRF-CEM leukemia): > 100 µM
- TGI (SK-MEL-28 melanoma): 45 µM
- TGI (NCI-H460 lung): > 31.6 µM
- TGI (HCC-2998 colon): 38.3 µM
- TGI (OVCAR-8 ovarian): > 100 µM
- TGI (SW-620 colon): 72.3 µM
- TGI (SR leukemia): 23.1 µM
- TGI (KM20L2 colon): > 60 µM
- TGI (U251 CNS): 28.2 µM
- TGI (SF-295 CNS): > 100 µM
- TGI (IGROV1 ovarian): > 100 µM
- TGI (K-562 leukemia): > 100 µM
- TGI (DMS 114 small cell lung): 80.7 µM
- TGI (M14 melanoma): 15.4 µM
- TGI (SNB-75 CNS): > 75.4 µM
- TGI (ACHN renal): 63.2 µM
- TGI (UACC-62 melanoma): 24.5 µM
- TGI (HOP-18 NSCLC): > 100 µM
- TGI (DLD-1 colon): > 100 µM
- TGI (KM12 colon): > 100 µM
- TGI (NCI-H23 lung): 33.6 µM
- TGI (MALME-3M melanoma): 40.3 µM
- TGI (DMS 273 small cell lung): > 100 µM
- TGI (NCI-H226 lung): > 100 µM
- TGI (RPMI-8226 leukemia): > 31.9 µM
- TGI (A498 renal): > 100 µM
- TGI (SK-OV-3 ovarian): > 100 µM
- TGI (A549 NSCLC): > 100 µM
- TGI (HCT-15 colon): 24.1 µM
- TGI (SF-268 CNS): > 76 µM
- TGI (M19-MEL melanoma): 33.5 µM
- TGI (OVCAR-4 ovarian): > 100 µM
- TGI (SNB-19 CNS): > 100 µM
- TGI (LOX IMVI melanoma): 18.9 µM
- TGI (786-0 renal): > 100 µM
- TGI (COLO 205 colon): 24.1 µM
- TGI (SNB-78 CNS): > 100 µM
- TGI (TK-10 renal): > 86.1 µM
- TGI (SN12C renal): > 49.1 µM
- TGI (HT29 colon): > 42 µM
- TGI (LXFL 529 NSCLC): 49.2 µM
- TGI (SK-MEL-2 melanoma): 26.4 µM
- TGI (CAKI-1 renal): > 100 µM
- TGI (EKVX NSCLC): 28.8 µM
- TGI (NCI-H522 lung): > 48.4 µM
- TGI (MOLT-4 leukemia): 96.1 µM
- TGI (SF-539 CNS): 48.4 µM
- TGI (HOP-62 NSCLC): 83.5 µM
- TGI (XF 498 CNS): > 100 µM
- TGI (OVCAR-3 ovarian): 19.9 µM
- TGI (OVCAR-5 ovarian): > 91.8 µM
- TGI (UACC-257 melanoma): 53.6 µM
- TGI (HL-60(TB) leukemia): 12.9 µM
